Assay [1] addresses Cyclin-dependent kinase 2/cyclin E1 (Homo sapiens) (UniProt P24864+P24941). Kind of assay: Inhibition of CDK2/Cyclin E1 (unknown origin) at 10 uM. In kind it is protein-complex assay.
In assay [2] the test system is HepG2. Nature of the assay: Growth inhibition of human HepG2 cells at 10 uM incubated for 3 days by MTT assay.
The subject of assay [3] is A2780. Nature of the assay: Growth inhibition of human A2780 cells at 10 uM incubated for 3 days by MTT assay. Background: Formazan colour is commonly taken as a measure of viable cells.
The test system of assay [4] is NCI-H1650. Nature of the assay: Growth inhibition of human NCI-H1650 cells at 10 uM incubated for 3 days by MTT assay.
For assay [5], the system named is BGC-823. Kind of assay: Growth inhibition of human BGC823 cells at 10 uM incubated for 3 days by MTT assay.
The target in assay [6] is CDK9/cyclin T1 (Homo sapiens) (UniProt O60563+P50750). Nature of the assay: Inhibition of CDK9/Cyclin T1 (unknown origin) at 10 uM. The format is protein-complex assay.
Assay [7] concerns HCT-116. Kind of assay: Growth inhibition of human HCT116 cells at 10 uM incubated for 3 days by MTT assay.
Assay [8] concerns BGC-823. Kind of assay: Growth inhibition of human BGC823 cells incubated for 3 days by MTT assay. The conditions noted are these: BGC-823, 72 h.
Assay [9] relates to NCI-H1650. Nature of the assay: Growth inhibition of human NCI-H1650 cells incubated for 3 days by MTT assay. The conditions noted are these: NCI-H1650, 72 h.
Assay [10] concerns A2780. Kind of assay: Growth inhibition of human A2780 cells incubated for 3 days by MTT assay. The conditions noted are these: A2780, 72 h.
The test system of assay [11] is HepG2. Nature of the assay: Growth inhibition of human HepG2 cells incubated for 3 days by MTT assay. The conditions noted are these: HepG2, 72 h.
In assay [12] the test system is HCT-116. Nature of the assay: Growth inhibition of human HCT116 cells incubated for 3 days by MTT assay. The conditions noted are these: HCT-116, 72 h.

Active and inactive are the calls of the source. The calls are words filed in the database; no cut-off is given here.

19 compounds from ChEMBL document CHEMBL4052679, “Design, synthesis and biological evaluation of novel indolin-2-ones as potent anticancer compounds” (Bioorg Med Chem Lett, 2017) can be followed below.

Turning to `O=C1Nc2ccc(F)cc2/C1=C\C(=O)c1cnccn1`, the inhibition entry in assay [1] and in assay [6] was “inactive” throughout. Also, the “growth inhibition (GI)” value in the assay on HepG2 [2], in the assay on A2780 [3], with NCI-H1650 [4], in the assay on BGC-823 [5] and with HCT-116 [7] was “inactive” each time.
Consider `CN1CCN(c2cccc(N/C=C3\C(=O)Nc4ccc(NC(=O)c5cccc(F)c5)cc43)c2)CC1`, for which the inhibition result in assay [1] and in assay [6] was “inactive” each time. Moreover, the half-maximal inhibitory concentration (IC50) (as a rule, the point on the concentration scale where inhibition reaches its midpoint) was determined as 8500 nM in the assay with BGC-823 [8]; 4280 nM with NCI-H1650 [9]; 2910 nM with A2780 [10]; 6720 nM with HepG2 [11]; 2740 nM in the assay on HCT-116 [12].
On to `O=C1Nc2ccc(F)cc2/C1=C\C(=O)c1cccs1`, for which the inhibition result in assay [1] and in assay [6] was “inactive” throughout. Besides, the IC50 with BGC-823 [8] came to 7750 nM; in the assay on NCI-H1650 [9] it was 3220 nM; with A2780 [10] it was 2750 nM; in the assay with HepG2 [11] it was 8780 nM; in the assay on HCT-116 [12], 1840 nM.
For `O=C1Nc2ccc(F)cc2/C1=C\C(=O)c1ccc(C2CCCCC2)cc1`, the inhibition entry in assay [1] and in assay [6] was “inactive” in each case. Besides, the half-inhibitory concentration (IC50) with BGC-823 [8] was determined as 4450 nM; with NCI-H1650 [9], 2730 nM; with A2780 [10], 2310 nM; in the assay on HepG2 [11], 2840 nM; with HCT-116 [12], 2520 nM.
Regarding `O=C1Nc2ccccc2/C1=C\C(=O)c1c[nH]c2ccccc12`, the inhibition result in assay [1] and in assay [6] was “inactive” in each case. Further, the IC50 is 9440 nM with BGC-823 [8]; 1270 nM in the assay on NCI-H1650 [9]; 2080 nM with A2780 [10]; 2110 nM with HepG2 [11]; 860 nM in the assay with HCT-116 [12].
With `O=C1Nc2ccc(F)cc2/C1=C\C(=O)c1ccc(-n2ccnc2)cc1`, the inhibition result in [1] and in assay [6] was “inactive” each time. Moreover, the “growth inhibition (GI)” value in the assay on HepG2 [2], in the assay on A2780 [3], with NCI-H1650 [4], in the assay on BGC-823 [5] and in the assay on HCT-116 [7] was “inactive” throughout.
As for `COc1ccc(C(=O)Nc2ccc3c(c2)/C(=C/Nc2cccc(N4CCN(C)CC4)c2)C(=O)N3)cc1`, the inhibition result in [1] and in assay [6] was “inactive” throughout. For the same compound, the concentration for half-maximal inhibition (IC50) in the assay on BGC-823 [8] was found to be 3170 nM; in the assay on NCI-H1650 [9] it was 1870 nM; in the assay on A2780 [10], 2050 nM; with HepG2 [11], 1780 nM; in the assay on HCT-116 [12], 2010 nM.
Consider `CN1CCN(c2cccc(N/C=C3\C(=O)Nc4ccc(NC(=O)c5c(Cl)cccc5Cl)cc43)c2)CC1`, for which the inhibition entry in assay [1] and in [6] was “inactive” each time. Besides, the IC50 in the assay on BGC-823 [8] amounted to 2240 nM; with NCI-H1650 [9], 2170 nM; with A2780 [10], 2140 nM; in the assay with HepG2 [11] it was 2370 nM; in the assay with HCT-116 [12] it was 2280 nM.
Turning to `O=C1Nc2ccc(F)cc2/C1=C\C(=O)c1ccc[nH]1`, the inhibition entry in assay [1] and in assay [6] was “inactive” throughout. Moreover, the concentration for half-maximal inhibition (IC50) with BGC-823 [8] was 6420 nM; in the assay with NCI-H1650 [9], 2840 nM; with A2780 [10], 2170 nM; in the assay on HepG2 [11] it was 3120 nM; in the assay on HCT-116 [12], 1380 nM.
Turning to `O=C1Nc2ccc(F)cc2/C1=C\C(=O)c1ccccc1O`, the inhibition entry in assay [1] and in [6] was “inactive” each time. For the same compound, the “growth inhibition (GI)” value in the assay on HepG2 [2], with A2780 [3], in the assay with NCI-H1650 [4], in the assay with BGC-823 [5] and with HCT-116 [7] was “inactive” each time.
Regarding `O=C1Nc2ccc(F)cc2/C1=C\C(=O)c1cnc2ccc(Cl)nn12`, the inhibition result in assay [1] and in assay [6] was “inactive” in each case. For the same compound, the 50% inhibitory concentration (IC50) with BGC-823 [8] amounted to 8020 nM; in the assay with NCI-H1650 [9], 2730 nM; in the assay on A2780 [10] it was 2370 nM; in the assay on HepG2 [11], 3090 nM; in the assay on HCT-116 [12] it was 1410 nM.
As to `O=C1Nc2ccc(F)cc2/C1=C\C(=O)c1c[nH]c2ccccc12`, the inhibition entry in assay [1] and in [6] was “inactive” throughout. The concentration for half-maximal inhibition (IC50) with BGC-823 [8] is 8990 nM; in the assay on NCI-H1650 [9], 6580 nM; with A2780 [10] it was 2440 nM; in the assay with HepG2 [11] it was 1860 nM; with HCT-116 [12] it was 3010 nM.
Take `CN1CCN(c2cccc(N/C=C3\C(=O)Nc4ccc(NC(=O)c5ccc[nH]5)cc43)c2)CC1`: the inhibition entry in assay [1] and in assay [6] was “inactive” throughout. Besides, the IC50 came out at 7560 nM in the assay on NCI-H1650 [9], 4460 nM in the assay with A2780 [10] and 5370 nM in the assay with HepG2 [11]. The “growth inhibition (GI)” value with BGC-823 [5] and in the assay on HCT-116 [7] was “inactive” each time.
In the case of `CN1CCC(C(=O)Nc2ccc3c(c2)/C(=C/Nc2cccc(N4CCN(C)CC4)c2)C(=O)N3)CC1`, the inhibition entry in assay [1] and in [6] was “inactive” each time. The “growth inhibition (GI)” value with HepG2 [2], in the assay with A2780 [3], with NCI-H1650 [4] and with BGC-823 [5] was “inactive” throughout. Further, in the assay on HCT-116 [12], the IC50 was 4670 nM.
On to `CC(=O)O[C@H]1C(=O)[C@@]2(C)[C@H]([C@H](OC(=O)c3ccccc3)[C@]3(O)C[C@H](OC(=O)[C@H](O)[C@@H](NC(=O)c4ccccc4)c4ccccc4)C(C)=C1C3(C)C)[C@]1(OC(C)=O)CO[C@@H]1C[C@@H]2O` [PACLITAXEL], for which the IC50 is 1 nM in the assay with BGC-823 [8]; 70 nM in the assay with NCI-H1650 [9]; 30 nM in the assay with A2780 [10]; 20 nM in the assay on HepG2 [11]; 30 nM with HCT-116 [12].
Take `O=C1Nc2ccc([N+](=O)[O-])cc2/C1=C\C(=O)c1ccc(C2CCCCC2)cc1`: the inhibition entry in [1] and in [6] was “inactive” throughout. The 50% inhibitory concentration (IC50) was found to be 5900 nM in the assay with BGC-823 [8]; 3860 nM in the assay with NCI-H1650 [9]; 2090 nM with A2780 [10]; 3990 nM in the assay with HepG2 [11]; 2320 nM with HCT-116 [12].
On to `CC(C)CC(=O)Nc1ccc2c(c1)/C(=C/Nc1cccc(N3CCN(C)CC3)c1)C(=O)N2`, for which the inhibition entry in [1] and in assay [6] was “inactive” throughout. Moreover, the IC50 in the assay on BGC-823 [8] was 6080 nM; in the assay on NCI-H1650 [9], 5870 nM; in the assay on A2780 [10], 3370 nM; with HepG2 [11], 5070 nM; with HCT-116 [12], 9410 nM.
Take `O=C1Nc2ccc(F)cc2/C1=C\C(=O)c1ccc(O)cc1F`: the inhibition result in assay [1] and in [6] was “inactive” throughout. The IC50 with BGC-823 [8] was determined as 6120 nM; in the assay on NCI-H1650 [9], 3460 nM; in the assay on A2780 [10], 1580 nM; in the assay with HepG2 [11], 3440 nM; with HCT-116 [12], 1070 nM.
Regarding `O=C1Nc2ccc(F)cc2/C1=C\C(=O)c1sccc1Cl`, the inhibition result in assay [1] and in assay [6] was “inactive” in each case. For the same compound, the IC50 is 2660 nM in the assay with BGC-823 [8]; 3560 nM in the assay with NCI-H1650 [9]; 2140 nM with A2780 [10]; 3100 nM in the assay with HepG2 [11]; 2450 nM with HCT-116 [12].
